Results taken from publication PMC4392609, “Interactions of antiretroviral drugs with the SLC22A1 (OCT1) drug transporter” (Frontiers in Pharmacology, 2015).
pIC50: −log10 of the molar value. “And” between values parts separate entries of the source, which are not always exact repeats. Equal entries are not always repeated. Where two headings read alike, the source gives them in different places. Blank lines part the entries; values can stand above or below the molecule they belong to.

Assays:
[1] = target: T1, SLC22A1 (Homo sapiens, UniProt O15245); parameters: expressed in transfected cells; method as in Jung et al., 2008; conditions: 1-methyl-4-phenylpyridinium as substrate, HEK-293 cells, 1 min incubation; efavirenz assessed only at 5 μM; ref Jung et al., 2008; cited from earlier work
T1 sequence (O15245 1-554): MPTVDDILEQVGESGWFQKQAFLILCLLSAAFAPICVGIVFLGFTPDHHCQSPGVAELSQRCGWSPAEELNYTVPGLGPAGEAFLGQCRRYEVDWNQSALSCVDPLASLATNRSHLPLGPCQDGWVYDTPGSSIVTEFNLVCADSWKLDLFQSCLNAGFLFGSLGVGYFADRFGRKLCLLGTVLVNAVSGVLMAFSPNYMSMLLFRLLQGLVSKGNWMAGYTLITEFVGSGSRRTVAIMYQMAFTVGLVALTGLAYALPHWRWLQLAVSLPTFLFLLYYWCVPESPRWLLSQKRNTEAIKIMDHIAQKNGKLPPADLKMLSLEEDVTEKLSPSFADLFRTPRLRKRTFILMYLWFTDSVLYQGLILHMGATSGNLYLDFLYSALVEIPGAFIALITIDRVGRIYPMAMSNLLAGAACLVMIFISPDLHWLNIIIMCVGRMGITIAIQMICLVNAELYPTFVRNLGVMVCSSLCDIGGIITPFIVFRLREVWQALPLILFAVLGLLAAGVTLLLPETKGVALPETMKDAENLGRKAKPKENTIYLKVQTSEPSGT

[2] = target: T1, SLC22A1; test: SLC22A1 IC50 determination (inhibition of tetraethylammonium accumulation over a concentration range); type: cell-based; parameters: expressed in transfected cells; conditions: for TEA accumulation when 100 μM inhibitor used (%compared to inhibitor-free control): tetraethylammonium 5.5 μM, 30 min
[3] = target: T1, SLC22A1; conditions: 30 min
Source text: Using intracellular radioactivity readings, the amount of drug in mock transfected cells was compared to SLC22A1-overexpressing KCL22 cells (% ± SD).

[4] = target: T1, SLC22A1; test: Tetraethylammonium accumulation in SLC22A1-overexpressing KCL22 cells co-incubated with 50 μM test drug; conditions: for Reduction in cellular accumulation (of tetraethylammonium): 50 μM drug, SLC22A1-overexpressing KCL22 cells
[5] = ref Villani et al., 1999; cited from earlier work
[6] = target: T1, SLC22A1; parameters: expressed in transfected cells; method as in Zhang et al., 2000; conditions: ref Zhang et al., 2000; cited from earlier work
[7] = SLC22A1-overexpressing KCL22 cells, 100 μM inhibitor

Structure (SMILES): COC(=O)N[C@H](C(=O)N[C@@H](Cc1ccccc1)[C@@H](O)CN(Cc1ccc(-c2ccccn2)cc1)NC(=O)[C@@H](NC(=O)OC)C(C)(C)C)C(C)(C)C [atazanavir]
SLC22A1 inhibition in vitro [1]: no SLC22A1-inhibiting capability

TEA accumulation when 100 μM inhibitor used (%compared to inhibitor-free control) [2, 7]: 39.7% | pIC50 ([2]; read-out: Absolute IC50): 4.66 | pIC50 ([2]; read-out: Relative IC50): 5.13 | Accumulation in SLC22A1-expressing cells compared to mock-transfected cells (% higher) ([3]; human, 20 μM): 17% | Amount of substrate in mock-transfected cells compared to SLC22A1-overexpressing cells (% less) ([3]; human, 20 μM): 17% | Reduction in cellular accumulation (of tetraethylammonium) [4]: 50.0%
Structure (SMILES): O=C1Nc2ccc(Cl)cc2[C@@](C#CC2CC2)(C(F)(F)F)O1 [efavirenz]
SLC22A1 inhibition in vitro [1]: did not show SLC22A1 inhibition | Maximum plasma concentration of efavirenz [5]: 12.7 µM

Reduction in cellular accumulation (of tetraethylammonium) [4]: 22.5%
Structure (SMILES): Cc1cc(C#N)cc(C)c1Oc1nc(Nc2ccc(C#N)cc2)nc(N)c1Br [etravirine]

Structure (SMILES): CC(C)(C)NC(=O)[C@@H]1CN(Cc2cccnc2)CCN1C[C@@H](O)C[C@@H](Cc1ccccc1)C(=O)N[C@H]1c2ccccc2C[C@H]1O [indinavir]
Effect on tetraethylammonium accumulation in SLC22A1-overexpressing Hela cells [6]: able to reduce tetraethylammonium accumulation

Structure (SMILES): Nc1ccn([C@@H]2CS[C@H](CO)O2)c(=O)n1 [lamivudine]
SLC22A1 inhibition in vitro [1]: significant inhibition

Structure (SMILES): Cc1c(O)cccc1C(=O)N[C@@H](CSc1ccccc1)[C@H](O)CN1C[C@H]2CCCC[C@H]2C[C@H]1C(=O)NC(C)(C)C [nelfinavir]
Effect on tetraethylammonium accumulation in SLC22A1-overexpressing Hela cells [6]: able to reduce tetraethylammonium accumulation | SLC22A1 inhibition in vitro [1]: inhibited

Reduction in cellular accumulation (of tetraethylammonium) [4]: 24.5%
Structure (SMILES): Cc1ccnc2c1NC(=O)c1cccnc1N2C1CC1 [nevirapine]

Reduction in cellular tetraethylammonium accumulation ([2]; 100 μM inhibitor, SLC22A1-overexpressing KCL22 cells): 84% | TEA accumulation when 100 μM inhibitor used (%compared to inhibitor-free control) [2, 7]: 16.1% | pIC50 ([2]; read-out: Absolute IC50): 5.55 | pIC50 ([2]; read-out: Relative IC50): 5.64
Structure (SMILES): COc1cc2nc(N3CCN(C(=O)c4ccco4)CC3)nc(N)c2cc1OC [prazosin]

Structure (SMILES): Cc1nnc(C(=O)NC(C)(C)c2nc(C(=O)NCc3ccc(F)cc3)c(O)c(=O)n2C)o1 [raltegravir]
Tetraethylammonium concentration in cells after 30 min incubation [4]: 9.6 ± 1.4 µM

Reduction in cellular accumulation (of tetraethylammonium) [4]: 41.2%
Structure (SMILES): Cc1cc(/C=C/C#N)cc(C)c1Nc1ccnc(Nc2ccc(C#N)cc2)n1 [rilpivirine]

Structure (SMILES): CC(C)c1nc(CN(C)C(=O)N[C@H](C(=O)N[C@@H](Cc2ccccc2)C[C@H](O)[C@H](Cc2ccccc2)NC(=O)OCc2cncs2)C(C)C)cs1 [ritonavir]
Effect on tetraethylammonium accumulation in SLC22A1-overexpressing Hela cells [6]: able to reduce tetraethylammonium accumulation | SLC22A1 inhibition in vitro [1]: inhibited

Structure (SMILES): CC(C)(C)NC(=O)[C@@H]1C[C@@H]2CCCC[C@@H]2CN1C[C@@H](O)[C@H](Cc1ccccc1)NC(=O)[C@H](CC(N)=O)NC(=O)c1ccc2ccccc2n1 [saquinavir]
Effect on tetraethylammonium accumulation in SLC22A1-overexpressing Hela cells [6]: able to reduce tetraethylammonium accumulation

Structure (SMILES): CC[N+](CC)(CC)CC [tetraethylammonium]
Amount of substrate in SLC22A1-overexpressing cells subjected to prazosin compared to SLC22A1-overexpressing cells (% less) ([3]; KCL22 cells, 100 μM prazosin, efavirenz 20 μM, darunavir 20 μM, tetraethylammonium 1 μM): 76% | Amount of substrate in mock-transfected cells compared to SLC22A1-overexpressing cells (% less) ([3]; KCL22 cells, efavirenz 20 μM, darunavir 20 μM, tetraethylammonium 1 μM): 92% | Tetraethylammonium cellular accumulation in mock transfected control KCL22 cells ([4]; tetraethylammonium 5.5 μM, 30 min, no inhibitor, mean ± SD, n = 3): 0.3 ± 0.04 µM and 0.3 ± 0.004 µM | Tetraethylammonium cellular accumulation in SLC22A1-overexpressing KCL22 cells ([4]; tetraethylammonium 5.5 μM, 30 min, no inhibitor, mean ± SD, n = 9): 10.6 ± 0.8 µM

Structure (SMILES): Cc1cn([C@H]2C[C@H](N=[N+]=[N-])[C@@H](CO)O2)c(=O)[nH]c1=O [zidovudine]
Tetraethylammonium concentration in cells after 30 min incubation [4]: 8.5 ± 3.1 µM
